What was measured:
Namalwa cells = test: Cell proliferation assay (3H-thymidine incorporation); format: cell-based; conditions: procedures substantially similar to Section 5.10
Method: Cell lines Namalwa, MUTZ-5, and UT-7 are obtained from the Deutsche Sammlung von Mikroorganismen und Zellkulturen GmbH (Braunschweig, Germany). The cell line KG-1 is obtained from the American Type Culture Collection (Manassas, Va., USA). Cell proliferation as indicated by ^3H-thymidine incorporation is measured in all cell lines as follows.
Cells are plated in 96-well plates at 6000 cells per well in media. The cells are pre-treated with compounds at about 100, 10, 1, 0.1, 0.01, 0.001, 0.0001 and 0 M in a final concentration of about 0.25% DMSO in triplicate at 37° C. in a humidified incubator at 5% CO2 for 72 hours. One microcurie of ^3H-thymidine (Amersham) is then added to each well, and cells are incubated again at 37 C in a humidified incubator at 5% CO2 for 6 hours. The cells are harvested onto UniFilter GF/C filter plates (Perkin Elmer) using a cell harvester (Tomtec), and the plates are allowed to dry overnight. Microscint 20 (Packard) (25 ÿl/well) is added, and plates are analyzed in TopCount NXT (Packard). Each well is counted for one minute. Percent inhibition of cell proliferation is calculated by averaging all triplicates and normalizing to the DMSO control (0% inhibition). Each compound is tested in each cell line in three separate experiments. Final IC50s are calculated using non-linear regression, sigmoidal dose-response, constraining the top to 100% and bottom to 0%, allowing variable slope. (GraphPad Prism v3.02).

IL-2 = IL-2 production by T cells (anti-CD3 stimulated, ELISA); format: cell-based, human; conditions: procedures substantially similar to Section 5.10
Method: PBMC are depleted of adherent monocytes by placing 1×10^8 PBMC in 10 ml complete medium (RPMI 1640 supplemented with 10% heat-inactivated fetal bovine serum, 2 mM L-glutamine, 100 U/ml penicillin, and 100 µg/ml streptomycin) per 10 cm tissue culture dish, in 37 C, 5% CO2 incubator for 30-60 minutes. The dish is rinsed with medium to remove all non-adherent PBMC. T cells are purified by negative selection using the following antibody (Pharmingen) and Dynabead (Dynal) mixture for every 1×10^8 non-adherent PBMC: 0.3 ml Sheep anti-mouse IgG beads, 15 1 anti-CD16, 15 1 anti-CD33, 15 1 anti-CD56, 0.23 ml anti-CD19 beads, 0.23 ml anti-HLA class II beads, and 56 1 anti-CD14 beads. The cells and bead/antibody mixture is rotated end-over-end for 30-60 minutes at 4 C. Purified T cells are removed from beads using a Dynal magnet. Typical yield is about 50% T cells, 87-95% CD3^+ by flow cytometry.
Tissue culture 96-well flat-bottom plates are coated with anti-CD3 antibody OKT3 at 5 μg/ml in PBS, 100 μl per well, incubated at 37° C. for 3-6 hours, then washed four times with complete medium 100 μl/well just before T cells are added. Compounds are diluted to 20 times of final in a round bottom tissue culture 96-well plate. Final concentrations are about 10 μM to about 0.00064 μM. A 10 mM stock of compounds provided herein is diluted 1:50 in complete for the first 20× dilution of 200 μM in 2% DMSO and serially diluted 1:5 into 2% DMSO. Compound is added at 10 μl per 200 l culture, to give a final DMSO concentration of 0.1%. Cultures are incubated at 37° C., 5% CO2 for 2-3 days, and supernatants analyzed for IL-2 and MIP-3 by ELISA (R&D Systems). IL-2 and MIP-3 levels are normalized to the amount produced in the presence of an amount of a compound provided herein, and EC50s calculated using non-linear regression, sigmoidal dose-response, constraining the top to 100% and bottom to 0%, allowing variable slope (GraphPad Prism v3.02).

TNFα = TNFα Inhibition Assay in PMBC (LPS-stimulated, ELISA); format: cell-based, human; conditions: LPS-stimulated PBMC; procedures substantially similar to Section 5.10
Method: Peripheral blood mononuclear cells (PBMC) from normal donors are obtained by Ficoll Hypaque (Pharmacia, Piscataway, N.J., USA) density centrifugation. Cells are cultured in RPMI 1640 (Life Technologies, Grand Island, N.Y., USA) supplemented with 10% AB+human serum (Gemini Bio-products, Woodland, Calif., USA), 2 mM L-glutamine, 100 U/ml penicillin, and 100 µg/ml streptomycin (Life Technologies).
PBMC (2×10^5 cells) are plated in 96-well flat-bottom Costar tissue culture plates (Corning, N.Y., USA) in triplicate. Cells are stimulated with LPS (from Salmonella abortus equi, Sigma cat. no. L-1887, St. Louis, Mo., USA) at 1 ng/ml final in the absence or presence of compounds. Compounds provided herein are dissolved in DMSO (Sigma) and further dilutions are done in culture medium immediately before use. The final DMSO concentration in all assays can be about 0.25%. Compounds are added to cells 1 hour before LPS stimulation. Cells are then incubated for 18-20 hours at 37° C. in 5% CO2, and supernatants are then collected, diluted with culture medium and assayed for TNF levels by ELISA (Endogen, Boston, Mass., USA). IC50s are calculated using non-linear regression, sigmoidal dose-response, constraining the top to 100% and bottom to 0%, allowing variable slope (GraphPad Prism v3.02).

Nc1cccc2c1CN(C1CCC(=S)NC1=O)C2=S (stereo not shown) [3-(4-Amino-1-thioxo-1,3-dihydro-isoindol-2-yl)-6-thioxo-piperidin-2-one]
ability to inhibit proliferation of Namalwa cells (activity range) (Namalwa cells): μM-mM | ability to stimulate IL-2 (activity range) (IL-2): μM-mM | ability to inhibit TNFα (activity range) (TNFα): μM-mM

Nc1cccc2c1CN(C1CCC(=O)NC1=O)C2=S (stereo not shown) [3-(4-Amino-1-thioxo-1,3-dihydro-isoindol-2-yl)-piperidine-2,6-dione]
ability to inhibit proliferation of Namalwa cells (activity range) (Namalwa cells): μM-mM | ability to stimulate IL-2 (activity range) (IL-2): μM-mM | ability to inhibit TNFα (activity range) (TNFα): μM-mM

O=C1NC(=S)CCC1N1Cc2c(cccc2[N+](=O)[O-])C1=S (stereo not shown) [3-(4-Nitro-1-thioxo-1,3-dihydro-isoindol-2-yl)-6-thioxo-piperidin-2-one]
ability to inhibit proliferation of Namalwa cells (activity range) (Namalwa cells): μM-mM | ability to stimulate IL-2 (activity range) (IL-2): μM-mM | ability to inhibit TNFα (activity range) (TNFα): μM-mM | melting point: 248 to 250 °C
